“And” between values parts separate entries of the source, which are not always exact repeats. Equal entries are not always repeated. Inconclusive results and toxic doses are left out. How the source made its calls: active means survival T/C of 150% or more; inactive means T/C below 125% in these data.
Tested on: BDF1 mice, P388 leukemia ip, median survival T/C
Experiment: NCI In Vivo Anticancer Drug Screen. Data for tumor model P388 Leukemia (intraperitoneal) in B6D2F1 (BDF1) mice
Details: endpoint: median survival time, higher = longer survival
Procedure, shortened: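 In tumour-bearing mice, survival after compound treatment is set against the vehicle group and given as a quotient.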

[1] = dose: 50.0 mg/kg/injection, schedule: Q01DX009 (ip), vehicle: saline with Tween-80
[2] = dose: 100.0 mg/kg/injection, schedule: Q01DX001 (ip), vehicle: saline with Tween-80
[3] = dose: 200.0 mg/kg/injection, schedule: Q01DX001 (ip), vehicle: saline with Tween-80
[4] = dose: 400.0 mg/kg/injection, schedule: Q01DX001 (ip), vehicle: saline with Tween-80
[5] = dose: 100.0 mg/kg/injection, schedule: Q01DX009 (ip), vehicle: Klucel (hydroxypropylcellulose) (HPC)
[6] = dose: 100.0 mg/kg/injection, schedule: Q04DX003 (ip), vehicle: Klucel (hydroxypropylcellulose) (HPC)
[7] = dose: 200.0 mg/kg/injection, schedule: Q01DX009 (ip), vehicle: Klucel (hydroxypropylcellulose) (HPC)
[8] = dose: 200.0 mg/kg/injection, schedule: Q04DX003 (ip), vehicle: Klucel (hydroxypropylcellulose) (HPC)
[9] = dose: 400.0 mg/kg/injection, schedule: Q01DX009 (ip), vehicle: Klucel (hydroxypropylcellulose) (HPC)
[10] = dose: 400.0 mg/kg/injection, schedule: Q04DX003 (ip), vehicle: Klucel (hydroxypropylcellulose) (HPC)
[11] = dose: 100.0 mg/kg/injection, schedule: Q01DX009 (ip), vehicle: other
[12] = dose: 100.0 mg/kg/injection, schedule: Q04DX003 (ip), vehicle: other
[13] = dose: 200.0 mg/kg/injection, schedule: Q04DX003 (ip), vehicle: other
[14] = dose: 100.0 mg/kg/injection, schedule: Q01DX009 (ip), vehicle: saline with Tween-80
[15] = dose: 200.0 mg/kg/injection, schedule: Q01DX009 (ip), vehicle: saline with Tween-80

Measured: T/C

COc1ccc(C[C@@H]2NC[C@@H](O)[C@@H]2OC(C)=O)cc1
inactive: dose: 6.25 mg/kg/injection, schedule: Q04DX002 (ip), vehicle: saline with Tween-80 100 % of control | dose: 12.5 mg/kg/injection, schedule: Q04DX002 (ip), vehicle: saline with Tween-80 106 % of control | dose: 22.0 mg/kg/injection, schedule: Q01DX009 (ip), vehicle: saline 106 % of control | dose: 25.0 mg/kg/injection, schedule: Q04DX002 (ip), vehicle: saline with Tween-80 100 % of control | dose: 33.0 mg/kg/injection, schedule: Q01DX009 (ip), vehicle: saline with Tween-80 112 % of control | dose: 33.0 mg/kg/injection, schedule: Q01DX009 (ip), vehicle: saline 106 % of control | dose: 44.0 mg/kg/injection, schedule: Q04DX003 (ip), vehicle: saline 102 % of control | [1] 113 % of control | dose: 50.0 mg/kg/injection, schedule: Q01DX009 (ip), vehicle: saline 106 % of control | dose: 50.0 mg/kg/injection, schedule: Q04DX002 (ip), vehicle: saline with Tween-80 97 % of control | dose: 66.0 mg/kg/injection, schedule: Q01DX001 (ip), vehicle: saline 111 % of control | dose: 66.0 mg/kg/injection, schedule: Q04DX003 (ip), vehicle: saline 105 % of control | dose: 75.0 mg/kg/injection, schedule: Q01DX009 (ip), vehicle: saline with Tween-80 113 % of control | dose: 100.0 mg/kg/injection, schedule: Q01DX001 (ip), vehicle: saline 104 % of control | dose: 100.0 mg/kg/injection, schedule: Q01DX009 (ip), vehicle: saline 109 % of control | dose: 100.0 mg/kg/injection, schedule: Q04DX002 (ip), vehicle: saline with Tween-80 104 % of control | dose: 100.0 mg/kg/injection, schedule: Q04DX003 (ip), vehicle: saline 111 % of control | dose: 113.0 mg/kg/injection, schedule: Q01DX009 (ip), vehicle: saline with Tween-80 120 % of control | dose: 150.0 mg/kg/injection, schedule: Q01DX001 (ip), vehicle: saline 107 % of control | dose: 150.0 mg/kg/injection, schedule: Q04DX003 (ip), vehicle: saline 110 % of control | dose: 169.0 mg/kg/injection, schedule: Q01DX009 (ip), vehicle: saline with Tween-80 116 % of control | dose: 225.0 mg/kg/injection, schedule: Q01DX001 (ip), vehicle: saline 103 % of control | dose: 225.0 mg/kg/injection, schedule: Q04DX003 (ip), vehicle: saline 105 % of control | dose: 338.0 mg/kg/injection, schedule: Q01DX001 (ip), vehicle: saline 102 % of control

CC(=O)Oc1c(Cl)c(Cl)c(Cl)c(Cl)c1Cl
inactive: [2] 115 % of control | [3] 95 % of control | [4] 100 % of control

COc1ccc(/C=C(\CC(=O)O)C(=O)O)cc1OC
inactive: [5] 100 % of control | [6] 100 % of control | [7] 109 % of control | [8] 100 % of control | [9] 95 % of control | [10] 90 % of control

CCCCOB=O
inactive: dose: 100.0 mg/kg/injection, schedule: Q04DX003 (ip), vehicle: saline with Tween-80 109 % of control | dose: 200.0 mg/kg/injection, schedule: Q04DX003 (ip), vehicle: saline with Tween-80 100 % of control

CC(O)Cc1c[nH]c(=O)[nH]c1=O (stereo unspecified)
inactive: dose: 100.0 mg/kg/injection, schedule: Q01DX009 (ip), vehicle: water 92 % of control | dose: 100.0 mg/kg/injection, schedule: Q04DX003 (ip), vehicle: water 90 % of control | dose: 200.0 mg/kg/injection, schedule: Q01DX009 (ip), vehicle: water 96 % of control | dose: 200.0 mg/kg/injection, schedule: Q04DX003 (ip), vehicle: water 105 % of control | dose: 400.0 mg/kg/injection, schedule: Q04DX003 (ip), vehicle: water 96 % of control

CN(C)CCC(O)Cc1ccccc1 (stereo unspecified)
inactive: dose: 50.0 mg/kg/injection, schedule: Q04DX003 (ip), vehicle: acetone 100 % of control | dose: 100.0 mg/kg/injection, schedule: Q04DX003 (ip), vehicle: acetone 100 % of control | dose: 200.0 mg/kg/injection, schedule: Q04DX003 (ip), vehicle: acetone 105 % of control

CCCCCCCCCC(O)CCCCCC (stereo unspecified)
inactive: [11] 105 % of control | [12] 95 % of control | [13] 118 % of control

ClC1=C(Cl)[C@@]2(Cl)[C@H]3[C@H]4C[C@H]([C@@H]5O[C@H]45)[C@H]3[C@@]1(Cl)C2(Cl)Cl
inactive: dose: 3.12 mg/kg/injection, schedule: Q01DX009 (ip), vehicle: Klucel (hydroxypropylcellulose) (HPC) 91 % of control | dose: 6.25 mg/kg/injection, schedule: Q01DX009 (ip), vehicle: Klucel (hydroxypropylcellulose) (HPC) 87 % of control

COc1ccc(NC(=O)Oc2ccc(OC)cc2)cc1
inactive: [6] 95 % of control | [8] 100 % of control | [10] 91 % of control

CC[Se](CC)CC.CC[Se](CC)CC.C[CH2][Ge]([CH2]C)[O][Ge]([CH2]C)[CH2]C
inactive: [14] 107 % of control

COc1cccc(C(=O)O)c1OS(=O)(=O)c1ccccc1
inactive: [5] 104 % of control | [6] 110 % of control | [7] 95 % of control | [8] 90 % of control | [9] 90 % of control | [10] 105 % of control

CCC(C)P(=O)(N1CC1)N1CC1 (stereo unspecified)
inactive: dose: 37.5 mg/kg/injection, schedule: Q04DX003 (ip), vehicle: saline 108 % of control

OCC1CSC2(CCCCC2)N1 (stereo unspecified)
inactive: [1] 105 % of control | [14] 105 % of control | [15] 93 % of control

ClC(Cl)(Cl)C(N1CCN(c2ccccc2)CC1)N1CCN(c2ccccc2)CC1
inactive: [1] 104 % of control | [14] 100 % of control | [15] 95 % of control

CN1Cc2c(ccc3c2OCO3)[C@@H]2[C@H](O)Cc3cc4c(cc3[C@@H]21)OCO4
inactive: dose: 50.0 mg/kg/injection, schedule: Q01DX010 (ip), vehicle: saline 100 % of control | dose: 100.0 mg/kg/injection, schedule: Q01DX010 (ip), vehicle: saline 100 % of control

CCCCCCCSCCSCCSCCCCCCC
inactive: dose: 100.0 mg/kg/injection, schedule: Q01DX001 (ip), vehicle: Klucel (hydroxypropylcellulose) (HPC) 100 % of control | dose: 200.0 mg/kg/injection, schedule: Q01DX001 (ip), vehicle: Klucel (hydroxypropylcellulose) (HPC) 100 % of control | dose: 400.0 mg/kg/injection, schedule: Q01DX001 (ip), vehicle: Klucel (hydroxypropylcellulose) (HPC) 100 % of control

COC(=O)[C@]1(C)CCC[C@]2(C)[C@H]3CC4OO[C@@]3(CC[C@H]21)[C@H]1O[C@@]41C(C)C
inactive: [11] 120 % of control | [12] 113 % of control | dose: 132.0 mg/kg/injection, schedule: Q01DX009 (ip), vehicle: other 100 % of control | dose: 200.0 mg/kg/injection, schedule: Q01DX009 (ip), vehicle: other 87 % of control | [13] 118 % of control | dose: 400.0 mg/kg/injection, schedule: Q04DX003 (ip), vehicle: other 104 % of control

COC(=O)/C(=C1/OC(=O)C(c2ccccc2)=C1O)c1ccccc1
inactive: dose: 6.25 mg/kg/injection, schedule: Q01DX009 (ip), vehicle: saline with Tween-80 100 % of control | dose: 11.0 mg/kg/injection, schedule: Q01DX009 (ip), vehicle: saline with Tween-80 115 % of control | dose: 12.5 mg/kg/injection, schedule: Q01DX009 (ip), vehicle: saline with Tween-80 90 % of control | dose: 16.5 mg/kg/injection, schedule: Q01DX009 (ip), vehicle: saline with Tween-80 105 % of control | dose: 25.0 mg/kg/injection, schedule: Q01DX009 (ip), vehicle: saline with Tween-80 109 % of control and 112 % of control | dose: 37.5 mg/kg/injection, schedule: Q01DX009 (ip), vehicle: saline with Tween-80 95 % of control | [1] 100 % of control

CCOC(O)C(Cl)(Cl)Cl (stereo unspecified)
inactive: [2] 100 % of control | [3] 100 % of control | [4] 100 % of control

CCCCC(CC)CC1CCCCC1O (stereo unspecified)
inactive: [5] 87 % of control | [6] 122 % of control | [7] 91 % of control | [8] 109 % of control | [10] 95 % of control

Reference: PubChem BioAssay AID328 (DTP/NCI, 2004)
